According to US7138361B2, “Herbicidal heterocycles” (E. I. du Pont de Nemours and Company, priority 2000, dated 2006):

Tests used:
Format in all cases: in vivo
[1] = test system: johnsongrass (Sorghum halepense); test: Test C preemergence
Description: (§1) Seeds of plant species selected from bermudagrass (Cynodon dactylon), Surinam grass (Brachiaria decumbens), cocklebur (Xanthium strumarium), corn (Zea mays), crabgrass (Digitaria sanguinalis), woolly cupgrass (Eriochloa villosa), giant foxtail (Setaria faberii), goosegrass (Eleusine indica), johnsongrass (Sorghum halepense), kochia (Kochia scoparia), lambsquarters (Chenopodium album), morningglory (Ipomoea hederacea), yellow nutsedge (Cyperus esculentus), pigweed (Amaranthus retroflexus), common ragweed (Ambrosia elatior), soybean (Glycine max) and velvetleaf (Abutilon theophrasti) were planted and treated preemergence with test chemicals formulated in a non-phytotoxic solvent mixture which included a surfactant.
(§2) At the same time, plants selected from these crop and weed species and also winter barley (Hordeum vulgare), blackgrass (Alopecurus myosuroides), canary grass (Phalaris minor), chickweed (Stellaria media), downy brome (Bromus tectorum), green foxtail (Setaria viridis), Italian ryegrass (Lolium multiflorum), wheat (Triticum aestivum), wild oat (Avena fatua) and windgrass (Apera spica-venti) were treated with postemergence applications of some of the test chemicals formulated in the same manner. Plants ranged in height from 2 to 18 cm (1- to 4-leaf stage) for postemergence treatments. Plant species in the flooded paddy test consisted of rice (Oryza saliva), smallflower flatsedge (Cyperus difformis), duck salad (Heteranthera limosa) and barnyardgrass (Echinochloa crus-galli) grown to the 2-leaf stage for testing. Treated plants and controls were maintained in a greenhouse for 12 to 14 days, after which time all species were compared to controls and visually evaluated. Plant response ratings, summarized in Table C, are based on a scale of 0 to 100 where 0 is no effect and 100 is complete control. A dash (-) response means no test result.

soybean (Glycine max) = test: Test C preemergence; details: preemergence; Rate 250 g/ha; scale 0 to 100, 0 no effect, 100 complete control
Description: as §1, §2

[2] = test system: cocklebur (Xanthium strumarium); test: Test C preemergence
Description: as §1, §2

[3] = test system: pigweed (Amaranthus retroflexus); test: Test C preemergence
Description: as §1, §2

[4] = test system: morningglory (Ipomoea hederacea); test: Test C preemergence
Description: as §1, §2

[5] = test system: lambsquarters (Chenopodium album); test: Test C preemergence
Description: as §1, §2

kochia (Kochia scoparia) = test: Test C preemergence
Description: as §1, §2

[6] = test system: velvetleaf (Abutilon theophrasti); test: Test C preemergence
Description: as §1, §2

[7] = test system: Surinam grass (Brachiaria decumbens); test: Test C preemergence
Description: as §1, §2

corn (Zea mays) = test: Test C preemergence
Description: as §1, §2

[8] = test system: woolly cupgrass (Eriochloa villosa); test: Test C preemergence
Description: as §1, §2

[9] = test system: goosegrass (Eleusine indica); test: Test C preemergence
Description: as §1, §2

[10] = test system: giant foxtail (Setaria faberii); test: Test C preemergence
Description: as §1, §2

Sunflower = test: Test C preemergence; details: Rate 125 g/ha; scale 0 to 100, 0 no effect, 100 complete control
Description: as §1, §2

[11] = test system: common ragweed (Ambrosia elatior); test: Test C preemergence
Description: as §1, §2

Nightshade = test: Test C preemergence
Description: as §1, §2

[12] = test system: bermudagrass (Cynodon dactylon); test: Test C preemergence
Description: as §1, §2

[13] = test system: crabgrass (Digitaria sanguinalis); test: Test C preemergence
Description: as §1, §2

[14] = test system: yellow nutsedge (Cyperus esculentus); test: Test C preemergence
Description: as §1, §2

[15] = test system: duck salad (Heteranthera limosa); test: Test C flooded paddy test; details: for Ducksalad plant response rating: Flooded Paddy, scale 0 to 100, 0 no effect, 100 complete control; for Plant response rating, Ducksalad: flooded paddy test, scale 0 to 100 (0 no effect, 100 complete control)
Procedure, shortened: (§3)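 2-leaf-stage plants, flooded paddy; treated; greenhouse 12–14 days; compared with controls by eye; rated 0–100 (0 none, 100 complete control).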

[16] = test system: barnyardgrass (Echinochloa crus-galli); test: Test C flooded paddy test; details: for Barnyardgrass plant response rating: Flooded Paddy, scale 0 to 100, 0 no effect, 100 complete control; for Plant response rating, Barnyardgrass: flooded paddy test, scale 0 to 100 (0 no effect, 100 complete control)
Procedure, shortened: as §3

[17] = test system: smallflower flatsedge (Cyperus difformis); test: Test C flooded paddy test; details: for Flatsedge plant response rating: Flooded Paddy, scale 0 to 100, 0 no effect, 100 complete control; for Plant response rating, Flatsedge: flooded paddy test, scale 0 to 100 (0 no effect, 100 complete control)
Procedure, shortened: as §3

[18] = Rate 125 g/ha, scale 0 to 100, 0 no effect, 100 complete control
[19] = preemergence, Rate 62 g/ha, scale 0 to 100
[20] = preemergence, Rate 500 g/ha, visual evaluation after 12 to 14 days
[21] = preemergence, Rate 250 g/ha, scale 0 to 100, 0 no effect, 100 complete control

CCOc1cccc(N2CCC(n3ccc(C(C)C)n3)C2=O)c1 (stereo not drawn) [Compound 128]
Plant response rating, Johnsongrass [1, 18]: 90 | Plant response rating, Johnsongrass [1, 19]: 60 | Plant response rating (0 to 100), Johnsongrass [1, 20]: 100 | Plant response rating, Johnsongrass [1, 21]: 100 | Plant response rating, Soybean (soybean (Glycine max)): 60 | Plant response rating, Cocklebur [2, 18]: 10 | Plant response rating, Cocklebur [2, 19]: 0 | Plant response rating (0 to 100), Cocklebur [2, 20]: 70 | Plant response rating, Cocklebur [2, 21]: 40 | Plant response rating, Pigweed [3, 18]: 70 | Plant response rating, Pigweed [3, 19]: 70 | Plant response rating (0 to 100), Pigweed [3, 20]: 100 | Plant response rating, Pigweed [3, 21]: 80 | Plant response rating, Morningglory [4, 18]: 60 | Plant response rating, Morningglory [4, 19]: 30 | Plant response rating (0 to 100), Morningglory [4, 20]: 80 | Plant response rating, Morningglory [4, 21]: 70 | Plant response rating, Lambsquarters [5, 18]: 100 | Plant response rating, Lambsquarters [5, 19]: 100 | Plant response rating (0 to 100), Lambsquarters [5, 20]: 100 | Plant response rating, Lambsquarters [5, 21]: 100 | Plant response rating, Kochia (kochia (Kochia scoparia); [18]): 100 | Plant response rating, Kochia (kochia (Kochia scoparia); [19]): 100 | Plant response rating (0 to 100), Kochia (kochia (Kochia scoparia); [20]): 100 | Plant response rating, Kochia (kochia (Kochia scoparia); [21]): 100 | Plant response rating, Velvetleaf [6, 18]: 20 | Plant response rating, Velvetleaf [6, 19]: 10 | Plant response rating (0 to 100), Velvetleaf [6, 20]: 50 | Plant response rating, Velvetleaf [6, 21]: 30 | Plant response rating, Surinam grass [7, 18]: 100 | Plant response rating, Surinam grass [7, 19]: 90 | Plant response rating (0 to 100), Surinam grass [7, 20]: 100 | Plant response rating, Surinam grass [7, 21]: 100 | Plant response rating, Corn (corn (Zea mays); [18]): 20 | Plant response rating, Corn (corn (Zea mays); [19]): 0 | Plant response rating (0 to 100), Corn (corn (Zea mays); [20]): 60 | Plant response rating, Corn (corn (Zea mays); [21]): 40 | Plant response rating, Cupgrass, Woolly [8, 18]: 100 | Plant response rating, Cupgrass, Woolly [8, 19]: 100 | Plant response rating (0 to 100), Cupgrass, Woolly [8, 20]: 100 | Plant response rating, Cupgrass, Woolly [8, 21]: 100 | Plant response rating, Goosegrass [9, 18]: 100 | Plant response rating, Goosegrass [9, 19]: 100 | Plant response rating (0 to 100), Goosegrass [9, 20]: 100 | Plant response rating, Goosegrass [9, 21]: 100 | Plant response rating, Foxtail, Giant [10, 18]: 90 | Plant response rating, Foxtail, Giant [10, 19]: 20 | Plant response rating (0 to 100), Foxtail, Giant [10, 20]: 100 | Plant response rating, Foxtail, Giant [10, 21]: 90 | Plant response rating, Sunflower (Sunflower): 100 | Plant response rating, Ragweed, Common [11, 18]: 100 | Plant response rating, Ragweed, Common [11, 19]: 100 | Plant response rating (0 to 100), Ragweed, Common [11, 20]: 100 | Plant response rating, Ragweed, Common [11, 21]: 100 | Plant response rating, Nightshade (Nightshade; Rate 62 g/ha, scale 0 to 100): 20 | Plant response rating, Nightshade (Nightshade; [18]): 40 | Plant response rating, Nightshade (Nightshade; Rate 250 g/ha, scale 0 to 100, 0 no effect, 100 complete control): 90 | Plant response rating, Bermudagrass [12, 18]: 100 | Plant response rating, Bermudagrass [12, 19]: 100 | Plant response rating (0 to 100 where 0 is no effect and 100 is complete control), Bermudagrass [12, 20]: 100 | Plant response rating, Bermudagrass [12, 21]: 100 | Plant response rating, Crabgrass [13, 18]: 100 | Plant response rating, Crabgrass [13, 19]: 100 | Plant response rating (0 to 100), Crabgrass [13, 20]: 100 | Plant response rating, Crabgrass [13, 21]: 100 | Plant response rating, Nutsedge [14, 18]: 70 | Plant response rating, Nutsedge [14, 19]: 20 | Plant response rating (0 to 100), Nutsedge [14, 20]: 100 | Plant response rating, Nutsedge [14, 21]: 100 | Ducksalad plant response rating ([15]; Rate 250 g/ha): 100 | Ducksalad plant response rating ([15]; Rate 500 g/ha): 100 | Plant response rating, Ducksalad ([15]; Rate 62 g/ha): 60 | Plant response rating, Ducksalad ([15]; Rate 125 g/ha): 70 | Barnyardgrass plant response rating ([16]; Rate 250 g/ha): 100 | Barnyardgrass plant response rating ([16]; Rate 500 g/ha): 100 | Plant response rating, Barnyardgrass ([16]; Rate 62 g/ha): 40 | Plant response rating, Barnyardgrass ([16]; Rate 125 g/ha): 100 | Flatsedge plant response rating ([17]; Rate 250 g/ha): 100 | Flatsedge plant response rating ([17]; Rate 500 g/ha): 100 | Plant response rating, Flatsedge ([17]; Rate 62 g/ha): 90 | Plant response rating, Flatsedge ([17]; Rate 125 g/ha): 90
